Measurements reported in patent US8637521B2, “Substituted piperazin-2,5-diones and their use as multifunctional bioactive compounds” (priority 2006, dated 2014).
Several values for one entry are separate records, joined by “and”; a condition that tells them apart may be missing. Equal values may be shown once.

Key:
[1] = Solubility of peptides in 0.1% NH4OH; format: physicochemical; conditions: for solubility when titrated with 0.1% AcOH: titrated with 0.1% AcOH to pH=8.4 to 8.5
Anti-OVA antibody titers = test: Adjuvant activity, anti-OVA antibody titers by ELISA (Example 8); format: in vivo, Balb/c mice; conditions: for Pool: pooled sera titer
Protocol: Adjuvant activity was tested on 11 groups of Balb/c mice (obtained from Stolbovaya Breeding Station). Each group consisted of 7 animals. Three immunizations were performed as follows:
• Group 1—ovalbumin 25 micrograms per animal (Mouse Nos. 1 to 7) • Group 2—ovalbumin 25 micrograms per animal+CFA (Complete Freund's adjuvant) (Mouse Nos. 8 to 14) • Group 3—ovalbumin 25 micrograms per animal+adjuvant of compound 33a 100 micrograms per animal (Mouse Nos. 15 to 21) • Group 4—ovalbumin 25 micrograms per animal+adjuvant of compound 33a 10 micrograms per animal (Mouse Nos. […]) • Group 5—ovalbumin 25 micrograms per animal+adjuvant of compound 33a 1 microgram per animal (Mouse Nos. […]) • Group 6—ovalbumin 25 micrograms per animal+adjuvant of compound 33b 100 micrograms per animal (No. 36 to 42) • Group 7—ovalbumin 25 micrograms per animal+adjuvant of compound 33b 10 micrograms per animal (Mouse Nos. 43 to 49) • Group 8—ovalbumin 25 micrograms per animal+adjuvant of compound 33b 1 microgram per animal (Mouse Nos. 50 to 56) • Group 9—ovalbumin 25 micrograms per animal+adjuvant of compound 17 100 micrograms per animal (Mouse Nos. 57 to 63) • Group 10—ovalbumin 25 micrograms per animal+adjuvant of compound 1710 micrograms per animal (Mouse Nos. 64 to 70) • Group 11—ovalbumin 25 micrograms per animal+adjuvant of compound 171 microgram per animal (Mouse Nos. 71 to 77) Second Immunization:
The same set 14 days after first immunization by injection of 12.5 micrograms of ovalbumin/mouse to mouse nos. 1 to 77.
The same set 28 days after first immunization by injection of 12.5 micrograms of ovalbumin/mouse to mouse nos. 1 to 77.
On day 35 after first immunization, blood samples from each mouse were collected.
OVA (10 micrograms/ml) solution in 0.05 M sodium carbonate buffer (pH 9.5) was added to plate wells, 0.1 ml per well and incubated at 4° C. for 16 hours. The OVA solution was then removed and the plate was washed 4 times with PBS containing 0.05% Tween-20. Such washing was performed after each incubation stage. Serial twofold dilutions of sera (starting from 1:100 or 1:1000) were added to the wells, 0.1 ml per well and incubated at 37° C. for 1 hour followed by incubation (1 hour, 37° C.) with HRP-conjugated goat anti-mouse IgG antibodies (0.1 ml, 1 mg/ml in PBS) and then with a 0.1 mL substrate solution −0.05% H2O2 and 0.05% o-phenylene diamine in 0.05M sodium citrate buffer with a pH of 4.5. The reaction was stopped by adding 100 μl of 12.5% H2SO4. Absorbance was measured at a wavelength of 492 nm using a Multiscan Plus MKII (Flow Laboratories, Great Britain). Significant anti-protein antibody titer (for individual sera) was assessed as the serum dilution produced an absorbance value of more than 0.1 ODU and the minimum exceeds three times the control level. The antibody titer was presented and −log of dilution (FIGS. 2 and 3). The stimulation index for pooled sera was calculated by dividing the test pooled sera dilution producing OD=1 by the dilution of pooled sera from mice immunized without the adjuvant, producing OD=1. The results of the adjuvant activities of cyclo-L-Ala-L-Glu-(L-Trp-OH) (Compound 17), cyclo-L-Lys(N-acetyl-Glycosamine-N-acetyl-muramil)-L-Glu-(L-Trp-OH) (Compound 33a) and cyclo-D-Lys(N-acetyl-Glycosamine-N-acetyl-muramil)-D-Glu-(L-Trp-OH) (Compound 33b) are shown in Table 7 and the adjuvant activities of cyclo [L-Lys(Palmitoyil)-L-Glu(D-Trp-OH)] (Compound 26a) and cyclo [D-Lys(Palmitoyil)-D-Glu(D-Trp-OH)] (Compound 26b) are shown in Table 8 as well as in FIG. 4 which includes the results of the adjuvant activities of cyclo-L-Lys-L-Glu-(L-Trp-OH) (compound 19). It is noted that the peptides of compounds 26a and 26b are soluble in 0.1% NH4OH at a concentration of 1 mg per 1 to 2 ml.

[2] = system: CFU-S population in the bone marrow; test: Spleen colony formation (CFU-S) by bone marrow cells of peptide-treated intact donor mice; format: in vivo, (CBA×C57 B1) F1 mice; conditions: Table 2, donor treated i/p
Protocol: The effect of tested substances on intact bone marrow was studied in vivo. […] Two days after administration of preparation, the mice were killed. Bone marrow suspension was prepared and injected intravenously to lethally irradiated mice. The colony forming activity was evaluated at day 8. Test animals were (CBA×C57 B1) F1 mice (30 mice per trial, average from 3 tests).

antibodies to ovalbumin [3] = test: Adjuvant activity with ovalbumin immunization (Example 6); format: in vivo, mice (C57B16); conditions: for Stimulation index: Table 5, ovalbumin alone = 1.00
Protocol: Adjuvant activity was tested on 5 groups of mice (C57B16). Each group consisted of 5 animals. Three immunizations were performed:
• 1. Group with Complete Freund's Adjuvant (CFA) • 2. Group with ovalbumin (OVA egg) (25 micrograms/mouse) • 3. Group with CFA+ovalbumin (25 micrograms/mouse) • 4. Group with ovalbumin (25 micrograms/mouse)+peptide 1 microgram/mouse • 5. Group with ovalbumin (25 micrograms/mouse)+peptide 10 micrograms/mouse Second Immunization:
The same set 21 days after first immunization by injection of 12.5 micrograms of ovalbumin/mouse to groups 2-5.
The same set 35 days after first immunization by injection of 12.5 micrograms of ovalbumin/mouse to groups 2-5.
On day 42, the total blood from each mouse was collected. The blood was pooled from each group of mice. The stimulation index of each group was compared. The stimulation index was calculated as a ratio between optical density (OD=1) of diluted pools of groups 3-5 to the optical density (OD=1) of diluted pools of group 2 (control with no adjuvant).

[4] = system: hemopoietic precursor cells; test: Exogenous spleen colonies from bone marrow irradiated ex vivo with 1 Gy; format: in vivo
Protocol: In this study, the method of exogenous spleen colonies was applied. A suspension of intact bone marrow cells was irradiated ex vivo in the dose of 1 Gy. Different doses of Neogen or cyclic peptides were injected IP, 1M, subcutaneous or introduced per os to lethally irradiated recipients within an hour after the injection of irradiated bone marrow. Colonies were counted on day 8. All data in each group was the mean of three tests.

antibodies to ovalbumin [5] = test: Adjuvant activity with ovalbumin immunization (Example 7); format: in vivo, mice; conditions: Table 6
Protocol: Adjuvant activity was tested on 6 groups of mice. Each group consisted of 5 animals. Three immunizations were performed as follows:
• 1. Mouse Nos. 1 to 5—Complete Freund's adjuvant (CFA=control) • 2. Mouse Nos. 6 to 10—ovalbumin (OVA egg) 25 micrograms per animal+adjuvant 100 micrograms per animal • 3. Mouse Nos. 11 to 15—ovalbumin 25 micrograms per animal+CFA • 4. Mouse Nos. 16 to 20—ovalbumin 25 micrograms per animal • 5. Mouse Nos. 21 to 25—ovalbumin 25 micrograms per animal+adjuvant 1 microgram per animal • 6. Mouse Nos. 26 to 30—ovalbumin 25 micrograms per animal+adjuvant 10 micrograms per animal Second Immunization:
The same set 21 days after first immunization by injection of 12.5 micrograms of ovalbumin/mouse to mouse nos. 6 to 30.
The same set 35 days after first immunization by injection of 12.5 microgram of ovalbumin/mouse to mouse nos. 6 to 30.
On day 42, blood samples from each mouse were collected. The stimulation index of each group was compared. The stimulation index was calculated by dividing the test pooled sera dilution yielding OD=1 by the dilution of pooled sera from mice immunized without the adjuvant, yielding OD=1.

[6] = Table 8, 100 μg per animal, no adjuvant = 1
[7] = Table 8, OVA + adjuvant 1 μg per animal, one value per mouse
[8] = Table 8, OVA + adjuvant 10 μg per animal, one value per mouse
[9] = Table 8, OVA + adjuvant 100 μg per animal, one value per mouse
[10] = Table 8, 100 μg per animal, no adjuvant 3.9

**Q.** What does the source list for CCCCCCCCCCCCCCCC(=O)NCCCC[C@@H]1NC(=O)[C@H](CCC(=O)N[C@H](Cc2c[nH]c3ccccc23)C(=O)O)NC1=O [Compound 26a, cyclo [L-Lys(Palmitoyil)-L-Glu(D-Trp-OH)]]?
**A.** soluble in 0.1% NH4OH at a concentration of [1]: 1 mg per 1 to 2 ml; solubility when titrated with 0.1% AcOH [1]: remain soluble; adjuvant activity (FIG. 4), doses at which active (Anti-OVA antibody titers): active at 10 μg/kg; Stimulation index (Anti-OVA antibody titers; Table 8, 1 μg per animal): 2.0; Stimulation index (Anti-OVA antibody titers; Table 8, 10 μg per animal): 6.5; Stimulation index (Anti-OVA antibody titers; [6]): 3.3; Anti-protein antibody titer (Anti-OVA antibody titers; [7]): 4.8 and 5.1 (4×) and 4.5 and 4.4; Anti-protein antibody titer (Anti-OVA antibody titers; [8]): 5.5 (4×) and 5.8 and 5.7 (2×); Anti-protein antibody titer (Anti-OVA antibody titers; [9]): 4.8 (4×) and 4.4 and 5.1 and 5.4; Pool (Anti-OVA antibody titers; Table 8, 1 μg per animal): 4.4; Pool (Anti-OVA antibody titers; Table 8, 10 μg per animal): 5.7; Pool (Anti-OVA antibody titers; [10]): 5.1

**Q.** What does the source list for CCCCCCCCCCCCCCCC(=O)NCCCC[C@H]1NC(=O)[C@@H](CCC(=O)N[C@H](Cc2c[nH]c3ccccc23)C(=O)O)NC1=O [Compound 26b, cyclo [D-Lys(Palmitoyil)-D-Glu(D-Trp-OH)]]?
**A.** soluble in 0.1% NH4OH at a concentration of [1]: 1 mg per 1 to 2 ml; solubility when titrated with 0.1% AcOH [1]: remain soluble; adjuvant activity (FIG. 4), doses at which active (Anti-OVA antibody titers): not an active compound; Stimulation index (Anti-OVA antibody titers; Table 8, 1 μg per animal): 4.9; Stimulation index (Anti-OVA antibody titers; Table 8, 10 μg per animal): 2.7; Stimulation index (Anti-OVA antibody titers; [6]): 2.6; Anti-protein antibody titer (Anti-OVA antibody titers; [7]): 5.4 (2×) and 4.5 and 3.8 and 3.5 and 5.1; Anti-protein antibody titer (Anti-OVA antibody titers; [8]): 4.7 (3×) and 5.1 and 4.8 (2×); Anti-protein antibody titer (Anti-OVA antibody titers; [9]): 4.5 (2×) and 4.8 (3×) and 4.2; Pool (Anti-OVA antibody titers; Table 8, 1 μg per animal): 5.1; Pool (Anti-OVA antibody titers; Table 8, 10 μg per animal): 4.8; Pool (Anti-OVA antibody titers; [10]): 4.8

**Q.** For C[C@@H]1NC(=O)[C@H](CCC(=O)N[C@@H](Cc2c[nH]c3ccccc23)C(=O)[O-])NC1=O.[Na+] [cyclo-LAla-LGlu-(LTrp-ONa), cyclo-L-Ala-L-Glu-(L-Trp-ONa)], which “% suppression” value [2] is on record?
**A.** 0%

**Q.** And the “Colony count CFU-8 - S per 10^5 cells M ± M” value ([2]; control 11.2 ± 0.4, colonies day 8)?
**A.** 11.7 ± 0.8 per 10^5 cells

**Q.** And the Stimulation index (antibodies to ovalbumin [3]; ovalbumin + peptide 1 μg/mouse (group 4))?
**A.** 1.18

**Q.** And the Stimulation index (antibodies to ovalbumin [3]; ovalbumin + peptide 10 μg/mouse (group 5))?
**A.** 1.74

**Q.** What about the “increase of titers of antibodies to ovalbumin” value (antibodies to ovalbumin [3]; matches stimulation index 1.74 at 10 μg/mouse) of the same molecule?
**A.** 74%

**Q.** And the Colony count ([4]; 10 μg/kg IP, unirradiated 11.9 ± 0.4, 1 Gy alone 6.2 ± 0.6)?
**A.** 8.0 ± 0.4

**Q.** And the “% stimulation” value ([4]; 10 μg/kg IP, unirradiated = 100, 1 Gy alone = 0)?
**A.** 67.2%

**Q.** What about the “% stimulation” value ([4]; 100 μg/kg IP) of the same molecule?
**A.** 80.7%

**Q.** What about the Colony count ([4]; 100 μg/kg IP) of the same molecule?
**A.** 9.6 ± 0.7

**Q.** And the “% stimulation” value ([4]; 100 μg/kg per/os)?
**A.** 98.3%

**Q.** What about the Colony count ([4]; 100 μg/kg per/os) of the same molecule?
**A.** 11.7 ± 0.6

**Q.** Which Stimulation index (antibodies to ovalbumin [5]; adjuvant 1 microgram per animal) does the source give for C[C@@H]1NC(=O)[C@H](CCC(=O)N[C@@H](Cc2c[nH]c3ccccc23)C(=O)O)NC1=O [Compound 17, cyclo-L-Ala-L-Glu-(L-Trp-OH)] here?
**A.** 1.18

**Q.** And the Stimulation index (antibodies to ovalbumin [5]; adjuvant 10 micrograms per animal)?
**A.** 1.74

**Q.** And the Stimulation index (antibodies to ovalbumin [5]; adjuvant 100 micrograms per animal, ovalbumin alone = 1.0)?
**A.** 1.14

**Q.** What about the “adjuvant activity (FIG. 4), doses at which active” value (Anti-OVA antibody titers) of the same molecule?
**A.** active at 1, 10 and 100 μg/kg

**Q.** And the “Anti-protein antibody titer (pooled sera)” value (Anti-OVA antibody titers; Table 7, 1 μg per animal)?
**A.** 4.8

**Q.** And the Stimulation index (Anti-OVA antibody titers; Table 7, 1 μg per animal)?
**A.** 2.6

**Q.** And the “Anti-protein antibody titer (pooled sera)” value (Anti-OVA antibody titers; Table 7, 10 μg per animal)?
**A.** 4.5

**Q.** What about the Stimulation index (Anti-OVA antibody titers; Table 7, 10 μg per animal) of the same molecule?
**A.** 1.9

**Q.** And the “Anti-protein antibody titer (pooled sera)” value (Anti-OVA antibody titers; Table 7, 100 μg per animal, no adjuvant 4.5)?
**A.** 4.8

**Q.** What about the Stimulation index (Anti-OVA antibody titers; Table 7, 100 μg per animal, no adjuvant = 1) of the same molecule?
**A.** 2.3

**Q.** And the “Anti-protein antibody titer (for individual sera)” value (Anti-OVA antibody titers; Table 7, OVA + adjuvant 1 μg per animal, −log of dilution)?
**A.** 5.1 (3×) and 4.2 and 4.5 (2×) and 5.4

**Q.** And the “Anti-protein antibody titer (for individual sera)” value (Anti-OVA antibody titers; Table 7, OVA + adjuvant 10 μg per animal, −log of dilution)?
**A.** 4.8 and 4.2 and 4.1 and 4.5 (2×) and 5.4 and 3.9

**Q.** What about the “Anti-protein antibody titer (for individual sera)” value (Anti-OVA antibody titers; Table 7, OVA + adjuvant 100 μg per animal, titer as −log of dilution, one value per mouse) of the same molecule?
**A.** 4.5 and 4.2 (3×) and 5.1 (2×) and 4.8
